Measurements published in ChEMBL document CHEMBL1122192, “Nitro and amino derivatives of lucanthone as antitumor agents” (1982).

What was measured:
P388 [1] = experiment: In vivo antitumor activity against P-388 lymphocytic leukemia at the dose of 100 mg/kg; assay type: functional, Mus musculus
P388 [2] = experiment: In vivo antitumor activity against P-388 lymphocytic leukemia at the dose of 200 mg/kg; assay type: functional, Mus musculus
P388 [3] = experiment: In vivo antitumor activity against P-388 lymphocytic leukemia at the dose of 50 mg/kg; assay type: functional, Mus musculus
P388 [4] = experiment: In vivo antitumor activity against P-388 lymphocytic leukemia at the dose of 12.5 mg/kg; assay type: functional, Mus musculus
P388 [5] = experiment: In vivo antitumor activity against P-388 lymphocytic leukemia at the dose of 25 mg/kg; assay type: functional, Mus musculus
P388 [6] = experiment: In vivo antitumor activity against P-388 lymphocytic leukemia at the dose of 200 mg/kg; Toxic; assay type: functional, organism-based; set-up: dose 200 mg/kg; conditions: Mus musculus

SMILES	T/C (P388 [1])	T/C (P388 [2])	T/C (P388 [3])	T/C (P388 [4])	T/C (P388 [5])	T/C (P388 [6])
CCN(CC)CCNc1ccc([N+](=O)[O-])c2sc3ccccc3c(=O)c12	145	178	142	–	–	–
CN(C)CCNc1ccc([N+](=O)[O-])c2sc3ccccc3c(=O)c12	103	–	143	114	135	–
CN(C)CCNc1ccc(N)c2sc3ccccc3c(=O)c12	121	–	100	–	–	Toxic
Nc1ccc(NCCNCCO)c2c(=O)c3ccccc3sc12	–	–	132	–	–	–
CCN(CC)CCNc1ccc(N)c2sc3ccccc3c(=O)c12	122	125	107	–	–	–
CCN(CC)CCNc1ccc(C)c2sc3ccc(N)cc3c(=O)c12	–	–	138	120	103	–
O=c1c2ccccc2sc2c([N+](=O)[O-])ccc(NCCNCCO)c12	–	–	120	133	141	–
CCN(CC)CCNc1ccc(C)c2sc3c(N)cccc3c(=O)c12	113	123	100	–	–	–
